PMC12684325, “SiR‐XActin: A Fluorescent Probe for Imaging Actin Dynamics in Live Cells” (Angewandte Chemie (International Ed. in English), 2025)

Test system: T1, F-actin
T1 construct: gene ACTB; F-actin filaments
Test: microscopy-based apparent affinity measurement for F-actin (fluorescent probe; fixed-cell staining)

Substance	Kd [µM]
SiR-XActin [compound 8]	0.557
SiR-actin [compound 2]	0.006
